Measurements published in PMC12274840 (The Journal of Biological Chemistry, 2025).
Values after ≈ are worked out from the molar mass of the structure shown. Where two headings read alike, the source gives them in different places.

Experiments:
[1] = system: E. coli KA797 cells carrying pUK21 vector without the β-lactamase gene; test: microbe, parasite or virus in culture; type: cell-based; details: Escherichia coli
[2] = system: E. coli KA797 cells carrying pUK21 with BlaC WT (Tat); test: microbe, parasite or virus in culture; type: cell-based; details: Escherichia coli, antibiotic alone
[3] = system: E. coli KA797 cells carrying pUK21 with CTX-M-14 WT (Tat); test: microbe, parasite or virus in culture; type: cell-based; details: Escherichia coli, antibiotic alone
[4] = system: E. coli KA797 cells carrying pUK21 with NmcA (pelB/Sec); test: microbe, parasite or virus in culture; type: cell-based; details: Escherichia coli, antibiotic alone
[5] = system: E. coli KA797 cells carrying BlaC position 105 library; type: cell-based, Escherichia coli; details: ceftriaxone; for Fi CEF AVG: average of replicates; for Fi CEF 1: replicate 1
[6] = system: E. coli KA797 cells carrying CTX-M-14 position 105 library; type: cell-based
[7] = system: E. coli KA797 cells carrying NmcA position 105 library; type: cell-based
[8] = system: E. coli KA797 cells carrying TEM-1 position 105 library; type: cell-based; details: for Fi CEF AVG: average of replicates

CO/N=C(\C(=O)N[C@@H]1C(=O)N2C(C(=O)O)=C(CSc3nc(=O)c(=O)[nH]n3C)CS[C@H]12)c1csc(N)n1 [ceftriaxone]
MIC [1]: 0.1 µg/mL (≈ 0.18 µM) | MIC [2]: 0.2 µg/mL (≈ 0.361 µM) | MIC [3]: 1600 µg/mL (≈ 2890 µM) | MIC [4]: 0.2 µg/mL (≈ 0.361 µM) | Fi CEF AVG ([5]; AA 105 Arg): 0.035 | Fi CEF 1 ([5]; AA 105 Arg): 0.040 | Fi CEF 2 ([5]; AA 105 Arg, replicate 2): 0.029 | Fi CEF AVG ([5]; AA 105 Cys): 0.035 | Fi CEF 1 ([5]; AA 105 Cys): 0.020 | Fi CEF 2 ([5]; AA 105 Cys, replicate 2): 0.049 | Fi CEF 2 ([5]; AA 105 Gly, replicate 2): -0.00224 | Fi CEF AVG ([5]; AA 105 His): 0.032 | Fi CEF 1 ([5]; AA 105 His): 0.007 | Fi CEF 2 ([5]; AA 105 His, replicate 2): 0.057 | Fi CEF AVG ([5]; AA 105 Ile (WT)): 0.000 | Fi CEF 1 ([5]; AA 105 Ile (WT)): 0.000 | Fi CEF 2 ([5]; AA 105 Ile (WT), replicate 2): 0.000 | Fi CEF AVG ([5]; AA 105 Leu): 0.017 | Fi CEF 1 ([5]; AA 105 Leu): 0.023 | Fi CEF 2 ([5]; AA 105 Leu, replicate 2): 0.011 | Fi CEF AVG ([5]; AA 105 Lys): -0.009 | Fi CEF 2 ([5]; AA 105 Lys, replicate 2): -0.009 | Fi CEF AVG ([5]; AA 105 Met): 0.036 | Fi CEF 1 ([5]; AA 105 Met): 0.064 | Fi CEF 2 ([5]; AA 105 Met, replicate 2): 0.008 | Fi CEF AVG ([5]; AA 105 Phe): 0.008 | Fi CEF 1 ([5]; AA 105 Phe): -0.000834 | Fi CEF 2 ([5]; AA 105 Phe, replicate 2): 0.017 | Fi CEF AVG ([5]; AA 105 Ser): -0.011 | Fi CEF 1 ([5]; AA 105 Ser): -0.00266 | Fi CEF AVG ([5]; AA 105 Trp): 0.038 | Fi CEF 1 ([5]; AA 105 Trp): 0.042 | Fi CEF 2 ([5]; AA 105 Trp, replicate 2): 0.034 | Fi CEF 1 ([5]; AA 105 Val): 0.004 | WT abs Fi 2 ([5]; WT (Ile 105) absolute fitness, replicate 2): -0.008 | Significance of average fitness ([6]; CTX-M-14 AA 105 Ala): - | Significance of average fitness ([6]; CTX-M-14 AA 105 Arg): - | Significance of average fitness ([6]; CTX-M-14 AA 105 Asn): - | Significance of average fitness ([6]; CTX-M-14 AA 105 Asp): - | Significance of average fitness ([6]; CTX-M-14 AA 105 Cys): - | Significance of average fitness ([6]; CTX-M-14 AA 105 Gln): - | Significance of average fitness ([6]; CTX-M-14 AA 105 Glu): - | Significance of average fitness ([6]; CTX-M-14 AA 105 Gly): - | Significance of average fitness ([6]; CTX-M-14 AA 105 His): - | Significance of average fitness ([6]; CTX-M-14 AA 105 Ile): - | Significance of average fitness ([6]; CTX-M-14 AA 105 Leu): - | Significance of average fitness ([6]; CTX-M-14 AA 105 Lys): - | Significance of average fitness ([6]; CTX-M-14 AA 105 Met): - | Significance of average fitness ([6]; CTX-M-14 AA 105 Phe): - | Significance of average fitness ([6]; CTX-M-14 AA 105 Pro): - | Significance of average fitness ([6]; CTX-M-14 AA 105 Ser): - | Significance of average fitness ([6]; CTX-M-14 AA 105 Thr): - | Significance of average fitness ([6]; CTX-M-14 AA 105 Trp): + | Significance of average fitness ([6]; CTX-M-14 AA 105 Val): - | WT abs Fi 1 (absolute fitness of wild type, Replicate 1) ([6]; CTX-M-14 WT (Tyr 105)): 0.241 | WT abs Fi 2 (absolute fitness of wild type, Replicate 2) ([6]; CTX-M-14 WT (Tyr 105)): 0.256 | Fi AVG (average fitness of replicates) ([7]; NmcA AA 105 Asp): 0.078 | Fi AVG (average fitness of replicates) ([7]; NmcA AA 105 Cys): 0.046 | Fi AVG (average fitness of replicates) ([7]; NmcA AA 105 Glu): 0.057 | Fi AVG (average fitness of replicates) ([7]; NmcA AA 105 Lys): 0.077 | Fi AVG (average fitness of replicates) ([7]; NmcA AA 105 Phe): 0.046 | Fi AVG (average fitness of replicates) ([7]; NmcA AA 105 Pro): 0.055 | Fi AVG (average fitness of replicates) ([7]; NmcA AA 105 Trp): 0.226 | Significance of average fitness ([7]; NmcA AA 105 Trp): + | WT abs Fi 1 (absolute fitness) ([7]; NmcA WT, replicate 1): 0.029 | WT abs Fi 2 (absolute fitness) ([7]; NmcA WT, replicate 2): -0.00378 | WT abs Fi 3 (absolute fitness) ([7]; NmcA WT, replicate 3): -0.101 | Fi CEF 2 ([8]; AA 105 Ala, replicate 2): -0.112 | Fi CEF 3 ([8]; AA 105 Ala, replicate 3): 0.013 | Fi CEF 2 ([8]; AA 105 Asn, replicate 2): -0.107 | Fi CEF 3 ([8]; AA 105 Asn, replicate 3): -0.034 | Fi CEF 1 ([8]; AA 105 Asp, replicate 1): 0.596 | Fi CEF AVG ([8]; AA 105 Cys): 0.087 | Fi CEF 1 ([8]; AA 105 Cys, replicate 1): 0.906 | Fi CEF AVG ([8]; AA 105 Gln): 0.078 | Fi CEF 1 ([8]; AA 105 Gln, replicate 1): 0.356 | Fi CEF 2 ([8]; AA 105 Gln, replicate 2): -0.028 | Fi CEF 3 ([8]; AA 105 Gln, replicate 3): -0.095 | Fi CEF 1 ([8]; AA 105 Glu, replicate 1): 0.340 | Fi CEF 2 ([8]; AA 105 Glu, replicate 2): -0.099 | Fi CEF AVG ([8]; AA 105 Gly): 0.067 | Fi CEF 1 ([8]; AA 105 Gly, replicate 1): 0.338 | Fi CEF 2 ([8]; AA 105 Gly, replicate 2): -0.077 | Fi CEF 3 ([8]; AA 105 Gly, replicate 3): -0.061 | Fi CEF AVG ([8]; AA 105 Leu): 0.072 | Fi CEF 1 ([8]; AA 105 Leu, replicate 1): 0.332 | Fi CEF 2 ([8]; AA 105 Leu, replicate 2): 0.047 | Fi CEF AVG ([8]; AA 105 Lys): 0.057 | Fi CEF 3 ([8]; AA 105 Lys, replicate 3): 0.102 | Fi CEF AVG ([8]; AA 105 Phe): 0.182 | Fi CEF 2 ([8]; AA 105 Phe, replicate 2): 0.022 | Fi CEF 3 ([8]; AA 105 Phe, replicate 3): 0.240 | Fi CEF AVG ([8]; AA 105 Pro): 0.130 | Fi CEF 1 ([8]; AA 105 Pro, replicate 1): 0.375 | Fi CEF 2 ([8]; AA 105 Pro, replicate 2): -0.060 | Fi CEF 3 ([8]; AA 105 Pro, replicate 3): 0.074 | Fi CEF AVG ([8]; AA 105 Ser): 0.105 | Fi CEF 3 ([8]; AA 105 Ser, replicate 3): 0.208 | Fi CEF AVG ([8]; AA 105 Trp): 0.125 | Fi CEF 1 ([8]; AA 105 Trp, replicate 1): 0.969 | Fi CEF 2 ([8]; AA 105 Tyr, replicate 2): 0.000 | Fi CEF 3 ([8]; AA 105 Tyr, replicate 3): 0.000 | WT abs Fi 1 ([8]; absolute fitness of TEM-1 WT, CEF, replicate 1): -0.283 | WT abs Fi 2 ([8]; absolute fitness of TEM-1 WT, CEF, replicate 2): 0.276 | WT abs Fi 3 ([8]; absolute fitness of TEM-1 WT, CEF, replicate 3): 0.176
